Entries after “also recorded” stand apart in the source; their conditions may differ.
System: HCoV-229E and three SARS-CoV-2 variants
Assay: Antiviral effect against all tested coronavirus variants (text comparisons)
Format: cell-based, human coronavirus
Settings: for antiviral effect against all tested coronavirus variants (in words): HCoV-229E and three SARS-CoV-2 variants

| Compound | antiviral effect against all tested coronavirus variants (in words) | other results |
| --- | --- | --- |
| Cc1cccc(OCC(=O)OC[C@H]2O[C@@H](n3ccc(NO)nc3=O)[C@H](O)[C@@H]2O)c1 [SN_22, 5′-O-(3-Methylphenoxy)acetyl-N4-hydroxycytidine] | highest activity | – |
| O=C(OC[C@H]1O[C@@H](n2ccc(NO)nc2=O)[C@H](O)[C@@H]1O)C1(c2ccccc2)CC1 [SN_20, 5′-O-(1-Phenylcyclopropanoyl-1-carbonyl)-N4-hydroxycytidine] | no antiviral effect; also recorded: lowest activity | – |
| O=C(Cc1ccccc1F)OC[C@H]1O[C@@H](n2ccc(NO)nc2=O)[C@H](O)[C@@H]1O [SN_17, 5′-O-(2-Fluorophenyl)acetyl-N4-hydroxycytidine] | – | fold increase in antiviral activity compared to SN_18 (compared with 4-fluoro substituted conjugate SN_18): ≥ 2 fold |
| COc1cccc(CCC(=O)OC[C@H]2O[C@@H](n3ccc(NO)nc3=O)[C@H](O)[C@@H]2O)c1 [SN_23, 5′-O-3-(3-Methoxyphenyl)propanoyl-N4-hydroxycytidine] | – | times higher antiviral effect than SN_15 and SN_16 (compared with SN_15 and SN_16): 2–6 times |
